The source of these data is ChEMBL document CHEMBL4842380, “Enhanced Properties of a Benzimidazole Benzylpyrazole Lysine Demethylase Inhibitor: Mechanism-of-Action, Binding Site Analysis, and Activity in Cellular Models of Prostate Cancer” (J Med Chem, 2021).

Structures are written as SMILES. The source made the active and inactive calls. The rule behind the calls is not given here.

The target in assay [1] is T1, Lysine-specific demethylase 4E (Homo sapiens, UniProt B2RXH2).
T1 sequence (B2RXH2 whole entry): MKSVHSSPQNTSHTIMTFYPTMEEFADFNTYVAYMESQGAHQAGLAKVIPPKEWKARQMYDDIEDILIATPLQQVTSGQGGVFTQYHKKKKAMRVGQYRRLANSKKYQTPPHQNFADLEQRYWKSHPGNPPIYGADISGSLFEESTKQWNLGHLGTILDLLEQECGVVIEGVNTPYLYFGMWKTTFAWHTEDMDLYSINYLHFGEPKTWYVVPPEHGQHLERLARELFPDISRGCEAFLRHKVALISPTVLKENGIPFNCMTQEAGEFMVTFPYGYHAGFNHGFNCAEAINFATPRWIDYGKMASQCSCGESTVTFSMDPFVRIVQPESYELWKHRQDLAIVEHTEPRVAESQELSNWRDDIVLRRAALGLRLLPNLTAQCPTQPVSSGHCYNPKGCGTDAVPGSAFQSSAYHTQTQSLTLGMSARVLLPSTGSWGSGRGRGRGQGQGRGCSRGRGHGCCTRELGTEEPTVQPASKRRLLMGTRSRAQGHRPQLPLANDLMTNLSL
Description: Inhibition of N-terminal His6-tagged KDM4E (1 to 337 residues) (unknown origin) expressed in Escherichia coli BL21 (DE3)-R3 preincubated for 10 mins followed by substrate addition by fluorescence based FDH-coupled assay.

In assay [2] the test system is LNCaP. Description: Cytotoxicity against human LnCaP cells assessed as growth inhibition after 48 hrs by alamar blue assay. In kind it is functional. On the technique in general: Resazurin is reduced to fluorescent resorufin, in cell work by metabolically active cells.
Assay [3] deals with DU-145. Description: Cytotoxicity against human DU-145 cells assessed as growth inhibition after 48 hrs by alamar blue assay. The format is functional.
The test system of assay [4] is PC-3. Description: Cytotoxicity against human PC-3 cells assessed as growth inhibition after 48 hrs by alamar blue assay. The format is functional.
The nature of assay [5]: Cytotoxicity against human LnCaP cells assessed as remaining cell viability after 48 hrs by alamar blue assay. In kind it is functional, Prostate cell.
Assay [6] deals with DU-145. Description: Cytotoxicity against human DU-145 cells assessed as remaining cell viability after 48 hrs by alamar blue assay. In kind it is functional.
Assay [7] relates to PC-3. Description: Cytotoxicity against human PC-3 cells assessed as remaining cell viability after 48 hrs by alamar blue assay. The format is functional.
Assay [8] in a line: Cytotoxicity against human prostate epithelial cells assessed as remaining cell viability after 48 hrs by alamar blue assay. The format is functional.
Assay [9] deals with LNCaP. Description: Inhibition of KDM4 in human LNCaP cells assessed as decrease in luciferase activity at 25 uM incubated for 48 hrs by luciferase based reporter gene assay. The format is cell-based. On the technique in general: In a reporter assay the amount or activity of a reporter protein is the signal.
The test system of assay [10] is LNCaP. Description: Inhibition of KDM4 in human LNCaP cells assessed as decrease in PSA gene expression at 25 uM incubated for 48 hrs by qPCR analysis. In kind it is cell-based. A general note: Quantitative PCR measures a nucleic acid by following its amplification.
The subject of assay [11] is LNCaP. Description: Inhibition of KDM4 in human LNCaP cells assessed as decrease in PSA gene expression at 25 uM incubated for 48 hrs in presence of DHT by qPCR analysis. In kind it is cell-based.
Assay [12] has as its system LNCaP. Description: Inhibition of KDM4 in human LNCaP cells assessed as increase in H3K9me3 abundance at 25 uM incubated for 48 hrs by Western blot analysis. The format is cell-based.
Assay [13] deals with LNCaP. Description: Inhibition of KDM4 in human LNCaP cells assessed as increase in H3K9me3 level at 25 uM incubated for 48 hrs by Nu-ELISA. The format is cell-based.
Assay [14] deals with DU-145. Description: Inhibition of KDM4 in human DU-145 cells assessed as increase in H3K9me3 level at 25 uM incubated for 48 hrs by Nu-ELISA. In kind it is cell-based.

For the molecule `Cc1cc(O)n(-c2nc3ccccc3[nH]2)n1`, half-maximal inhibition in assay [1] (IC50) required 76 µM.

For the molecule `COC(=O)CCc1c(C)nn(-c2nc3ccccc3[nH]2)c1O`, the IC50 (usually the point on the concentration scale where inhibition reaches its midpoint) in assay [1] was 72 µM.

Take `CCc1nn(-c2nc3ccccc3[nH]2)c(O)c1-c1ccccc1`: the IC50 in [1] amounted to 5 µM.

In turn, `CCCc1c(C)nn(-c2nc3ccccc3[nH]2)c1O` gave an IC50 in [1] of 24 µM. Against the preceding molecule, the IC50 is about 4.8-fold higher.

`Cc1cc(N)n(-c2nc3ccccc3[nH]2)n1` came in with an IC50 in [1] of 199 µM.

For `Cc1nn(-c2nc3ccccc3[nH]2)c(O)c1CCC(=O)O`, in assay [1], the IC50 is 274 µM.

Turning to `Cc1nn(-c2nc3ccccc3[nH]2)c(O)c1-c1ccccc1`, the figures for the concentration for 50% growth inhibition (GI50) in the assay with LNCaP [2], with DU-145 [3] and in the assay with PC-3 [4] were 8 µM, 8 µM and greater than 50 µM, respectively. The Activity came to 1% in assay [5], 0% with DU-145 [6], 27% with PC-3 [7] and 2% in assay [8]. For the same molecule, the inhibition result in the assay with LNCaP [9], in the assay with LNCaP [10], in the assay with LNCaP [11], with LNCaP [12], with LNCaP [13] and in the assay with DU-145 [14] was “Active” each time.

Take `Cc1nn(-c2nc3ccc(C(=O)O)cc3[nH]2)c(O)c1-c1ccccc1`: 19 µM corresponded to half-maximal inhibition in [1] (IC50).

With `Cc1nn(-c2nc3ccccc3[nH]2)c(O)c1Cc1ccccc1`, the IC50 in [1] was 27 µM.

In turn, `Cc1ccc(-c2c(C)nn(-c3nc4ccccc4[nH]3)c2O)cc1` displayed an IC50 in assay [1] of 27 µM.

`Cc1nn(-c2ccccn2)c(O)c1Cc1ccccc1` registered an IC50 in [1] of 57 µM. This IC50 lies about 2.1-fold higher than the previous one.

`Cc1nn(-c2nc3ccccc3[nH]2)c(N)c1-c1ccccc1` had an IC50 in assay [1] of 160 µM. Compared with the last molecule, the IC50 is about 2.8-fold higher.

`Cc1c(CCC(=O)O)nn(-c2nc3ccccc3[nH]2)c1O` registered a half-inhibitory concentration (IC50) in [1] of 437 µM.

In the case of `CNCCCc1c(C)nn(-c2nc3ccccc3[nH]2)c1O`, inhibition in [1] was half-maximal at 9 µM (IC50).

Molecule `Cc1nn(-c2ccc(Cl)nn2)c(O)c1-c1ccccc1` returned an IC50 in assay [1] of 68 µM.
